From US12673954B2 (BRISTOL-MYERS SQUIBB COMPANY, priority 2021, dated 2026)
Where two headings read alike, the source gives them in different places.

Columns and labels:
[1] = test system: NF-κB pathway, THP1-Dual™ cells; test: STING reporter assay in THP1-Dual cells, NF-κB pathway (SEAP, QUANTI-Blue); type: cell-based, human; conditions: THP1-Dual cells, 10% human plasma, 20 hours, SEAP, 100% activation = 100 μM cGAMP, read-out: NFkB (EC50 μM)
In short: (§1)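 THP-1-derived dual-reporter cells treated with serially diluted compounds (final top concentration 100 μM) for 20 h at 37° C. NF-κB read as SEAP via QUANTI-Blue at OD620; IRF read as Lucia luminescence via QUANTI-Luc after 5 min. 100% activation set by 100 μM cGAMP, baseline by DMSO.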

[2] = test system: IRF pathway, THP1-Dual™ cells; test: STING reporter assay in THP1-Dual cells, IRF pathway (Lucia luciferase, QUANTI-Luc); type: cell-based, human; conditions: THP1-Dual cells, 10% human plasma, 20 hours, Lucia luciferase, 100% activation = 100 μM cGAMP, read-out: IRF (EC50 μM)
In short: as §1

Compound | EC50 ([1]; Homo sapiens, THP1-Dual, 20 h) [µM] | EC50 ([2]; Homo sapiens, THP1-Dual, 20 h) [µM] | EC50 [1] [µM] | EC50 [2] [µM]
O=C(OCC1CC1)c1cccc2cc(CN3CCc4ccncc4C3=O)oc12 [EXAMPLE 354, Cyclopropylmethyl 2-((1-oxo-3,4-dihydro-2,7-naphthyridin-2(1H)-yl)methyl)benzofuran-7-carboxylate] | 70 | 46 | – | –
O=C(OCC(F)(F)F)c1ccc(F)c2cc(CNC(=O)c3cnn4cccnc34)oc12 [EXAMPLE 355, 2,2,2-Trifluoroethyl 4-fluoro-2-((pyrazolo[1,5-a]pyrimidine-3-carboxamido)methyl)benzofuran-7-carboxylate] | 1.3 | 0.96 | – | –
O=C(OCC(F)(F)F)c1ccc(F)c2cc(Cn3cnc4ccncc4c3=O)oc12 [EXAMPLE 356] | 18 | 13 | – | –
O=C(OCC(F)(F)F)c1ccc(Cl)c2cc(CNC(=O)c3cnn4cccnc34)oc12 [EXAMPLE 357, 2,2,2-Trifluoroethyl 4-chloro-2-((pyrazolo[1,5-a]pyrimidine-3-carboxamido)methyl)benzofuran-7-carboxylate] | 1 | 0.9 | – | –
Cc1ccc(C(=O)OCC(F)(F)F)c2oc(CNC(=O)c3cnn4cccnc34)cc12 [EXAMPLE 358, 2,2,2-Trifluoroethyl 4-methyl-2-((pyrazolo[1,5-a]pyrimidine-3-carboxamido)methyl)benzofuran-7-carboxylate] | 2 | 2.9 | – | –
Cc1ccc(C(=O)OCC(F)(F)F)c2oc(Cn3ccc4ccncc4c3=O)cc12 [EXAMPLE 359] | 4 | 3.8 | – | –
Cc1ccc(C(=O)OCC(F)(F)F)c2oc(Cn3cnc4ccncc4c3=O)cc12 [EXAMPLE 360] | 3.4 | 2.8 | – | –
Cc1ccc(C(=O)OCC(F)(F)F)c2oc(CN3CCc4ccncc4C3=O)cc12 [EXAMPLE 361] | 7.2 | 5.5 | – | –
O=C(OCC(F)(F)F)c1cc(F)cc2cc(Cn3ccc4ccncc4c3=O)oc12 [EXAMPLE 362, 2,2,2-Trifluoroethyl 5-fluoro-2-((1-oxo-2,7-naphthyridin-2(1H)-yl)methyl)benzofuran-7-carboxylate] | 4.6 | 5.7 | – | –
O=C(OCC(F)(F)F)c1cc(F)cc2cc(Cn3cnc4ccncc4c3=O)oc12 [EXAMPLE 363, 2,2,2-Trifluoroethyl 5-fluoro-2-((4-oxopyrido[4,3-d]pyrimidin-3(4H)-yl)methyl)benzofuran-7-carboxylate] | 3.2 | 3.5 | – | –
CC(OC(=O)c1cc(F)cc2cc(Cn3cnc4ccncc4c3=O)oc12)C(F)(F)F (stereo not drawn) [EXAMPLE 364, 1,1,1-Trifluoropropan-2-yl 5-fluoro-2-((4-oxopyrido[4,3-d]pyrimidin-3(4H)-yl)methyl)benzofuran-7-carboxylate] | – | – | 21 | 35
CC(OC(=O)c1cc(F)cc2cc(Cn3cnc4ccncc4c3=O)oc12)C(F)(F)F (stereo not drawn) [EXAMPLE 365, 1,1,1-Trifluoropropan-2-yl 5-fluoro-2-((4-oxopyrido[4,3-d]pyrimidin-3(4H)-yl)methyl)benzofuran-7-carboxylate] | – | – | 4.4 | 7.5
O=C(Cc1cc(F)cc2cc(CNC(=O)c3cnn4cccnc34)oc12)OCC(F)(F)F [EXAMPLE 366, 2,2,2-Trifluoroethyl 2-(5-fluoro-2-((pyrazolo[1,5-a]pyrimidine-3-carboxamido)methyl)benzofuran-7-yl)acetate] | 4 | 4 | – | –
C[C@@H](OC(=O)Cc1cc(F)cc2cc(CNC(=O)c3cnn4cccnc34)oc12)C(F)(F)F [EXAMPLE 367, (R)-1,1,1-Trifluoropropan-2-yl 2-(5-fluoro-2-((pyrazolo[1,5-a]pyrimidine-3-carboxamido)methyl)benzofuran-7-yl)acetate] | 9.5 | 7.5 | – | –
O=C(OCC(F)(F)F)c1cc(Cl)cc2cc(CNC(=O)c3cnc4cccnn34)oc12 [EXAMPLE 369, 2,2,2-Trifluoroethyl 5-chloro-2-((imidazo[1,2-b]pyridazine-3-carboxamido)methyl)benzofuran-7-carboxylate] | 1.1 | 0.91 | – | –
O=C(OCC(F)(F)F)c1cc(Cl)cc2cc(CN3CCc4ccncc4C3=O)oc12 [EXAMPLE 370, 2,2,2-Trifluoroethyl 5-chloro-2-((1-oxo-3,4-dihydro-2,7-naphthyridin-2(1H)-yl)methyl)benzofuran-7-carboxylate] | 16 | 13 | – | –
O=C(OCC(F)(F)F)c1cc(Cl)cc2cc(Cn3cnc4ccncc4c3=O)oc12 [EXAMPLE 371, 2,2,2-Trifluoroethyl 5-chloro-2-((4-oxopyrido[4,3-d]pyrimidin-3(4H)-yl)methyl)benzofuran-7-carboxylate] | 2.8 | 2.5 | – | –
O=C(OCC(F)(F)F)c1cc(Cl)cc2cc(Cn3ccc4ccncc4c3=O)oc12 [EXAMPLE 372, 2,2,2-Trifluoroethyl 5-chloro-2-((1-oxo-2,7-naphthyridin-2(1H)-yl)methyl)benzofuran-7-carboxylate] | 4.6 | 3.7 | – | –
O=C(NCc1cc2cc(Cl)cc(C(=O)OCC(F)(F)F)c2o1)c1cnccn1 [EXAMPLE 373, 2,2,2-Trifluoroethyl 5-chloro-2-((pyrazine-2-carboxamido)methyl)benzofuran-7-carboxylate] | 3.9 | 3.9 | – | –
Cc1cc(C(=O)OCC(F)(F)F)c2oc(Cn3cnc4ccncc4c3=O)cc2c1 [EXAMPLE 374, 2,2,2-Trifluoroethyl 5-methyl-2-((4-oxopyrido[4,3-d]pyrimidin-3(4H)-yl)methyl)benzofuran-7-carboxylate] | 3.5 | 4.3 | – | –
Cc1cc(C(=O)OCC(F)(F)F)c2oc(Cn3ccc4ccncc4c3=O)cc2c1 [EXAMPLE 375, 2,2,2-Trifluoroethyl 5-methyl-2-((1-oxo-2,7-naphthyridin-2(1H)-yl)methyl) benzofuran-7-carboxylate] | 2.3 | 2.6 | – | –
Cc1cc(C(=O)OCC(F)(F)F)c2oc(CN3CCc4ccncc4C3=O)cc2c1 [EXAMPLE 376, 2,2,2-Trifluoroethyl 5-methyl-2-((1-oxo-3,4-dihydro-2,7-naphthyridin-2(1H)-yl)methyl)benzofuran-7-carboxylate] | 16 | 19 | – | –
Cc1cc(C(=O)OCC(F)(F)F)c2oc(CNC(=O)c3cnn4cccnc34)cc2c1 [EXAMPLE 377, 2,2,2-Trifluoroethyl 5-methyl-2-((pyrazolo[1,5-a]pyrimidine-3-carboxamido)methyl)benzofuran-7-carboxylate] | 0.3 | 0.4 | – | –

Now from value to compound:

EC50 ([1]; Homo sapiens, THP1-Dual, 20 h) [µM] | EC50 ([2]; Homo sapiens, THP1-Dual, 20 h) [µM] | EC50 [1] [µM] | EC50 [2] [µM] | Compound
1.2 | 1.3 | – | – | Cc1cc(C(=O)OC(C)C(F)(F)F)c2oc(CNC(=O)c3cnn4cccnc34)cc2c1 (stereo not drawn) [EXAMPLE 378, 1,1,1-Trifluoropropan-2-yl 5-methyl-2-((pyrazolo[1,5-a]pyrimidine-3-carboxamido)methyl)benzofuran-7-carboxylate]
19 | 13 | – | – | CCOC(=O)c1c(C)ccc2cc(CNC(=O)c3cnn4cccnc34)oc12 [EXAMPLE 379, Ethyl 6-methyl-2-((pyrazolo[1,5-a]pyrimidine-3-carboxamido)methyl)benzofuran-7-carboxylate]
12 | 13 | – | – | CSC(=O)c1cccc2cc(CNC(=O)c3cnccn3)oc12 [EXAMPLE 381, S-Methyl 2-((pyrazine-2-carboxamido)methyl)benzofuran-7-carbothioate]
1.1 | 1.3 | – | – | CSC(=O)c1cc(F)cc2cc(CNC(=O)c3cnn4cccnc34)oc12 [EXAMPLE 382, S-Methyl 5-fluoro-2-((pyrazolo[1,5-a]pyrimidine-3-carboxamido)methyl)benzofuran-7-carbothioate]
1.1 | 0.92 | – | – | CSC(=O)c1cc(F)cc2cc(CNC(=O)c3cnc4cccnn34)oc12 [EXAMPLE 383, S-Methyl 5-fluoro-2-((imidazo[1,2-b]pyridazine-3-carboxamido)methyl)benzofuran-7-carbothioate]
3 | 3.2 | – | – | CSC(=O)c1cc(F)cc2cc(CNC(=O)c3cnccn3)oc12 [EXAMPLE 384, S-Methyl 5-fluoro-2-((pyrazine-2-carboxamido)methyl)benzofuran-7-carbothioate]
2.5 | 2.1 | – | – | CSC(=O)c1cc(F)cc2cc(Cn3cnc4ccncc4c3=O)oc12 [EXAMPLE 385, S-Methyl 5-fluoro-2-((4-oxopyrido[4,3-d]pyrimidin-3(4H)-yl)methyl)benzofuran-7-carbothioate]
3.7 | 3.4 | – | – | CSC(=O)c1cc(F)cc2cc(CN3CCc4ccncc4C3=O)oc12 [EXAMPLE 386, S-Methyl 5-fluoro-2-((1-oxo-3,4-dihydro-2,7-naphthyridin-2(1H)-yl)methyl)benzofuran-7-carbothioate]
2.1 | 1.9 | – | – | CCSC(=O)c1cc(F)cc2cc(CNC(=O)c3cnn4cccnc34)oc12 [EXAMPLE 387, S-Ethyl 5-fluoro-2-((pyrazolo[1,5-a]pyrimidine-3-carboxamido)methyl)benzofuran-7-carbothioate]
1.4 | 1.5 | – | – | O=C(SCC(F)(F)F)c1cc(F)cc2cc(CNC(=O)c3cnn4cccnc34)oc12 [EXAMPLE 388, S-(2,2,2-Trifluoroethyl) 5-fluoro-2-((pyrazolo[1,5-a]pyrimidine-3-carboxamido)methyl)benzofuran-7-carbothioate]
